Measured values taken from patent US8481740B2, “Imidazo[1,2 a] pyridine-6-carboxamide derivatives, their use for the treatment of colon cancer and their method of manufacture” (University of the Witwatersrand, Johannesburg, priority 2009, dated 2013).
Like-named read-outs stand apart in the source and are kept apart here.

How the values were obtained:
white blood cells = assay: MTT cell viability assay, white blood cells; format: cell-based
Method: Cell viability was determined by the MTT assay after the white blood cells were exposed to the novel compounds for 24 hours at an initial concentration of 100 μM. Camptothecin was used as a positive control for cytotoxicity.

caspase 3 in HT-29 cells = assay: Caspase 3 colorimetric assay, HT-29 lysates; format: cell-based, human; details: for time at which high caspase 3 levels were observed / time of maximal caspase 3 expression: time of exposure; for initiation of apoptosis compared with camptothecin: from caspase 3 levels
Method: (§1) As it is well known that caspases play a vital role in the execution of apoptosis, the level of caspase 3 and caspase 8 enzymatic activity in the cell lysates were determined using a caspase 3 and caspase 8 colorimetric assay kit (FIGS. 3A and B). Maximal caspase 8 expression in HT-29 cells was observed within 2 hours of exposure to all the CDK compounds. […] Maximal caspase 3 expression in the HT-29 cells was observed after 8 hours of exposure to 7 and 13, and 4 hours of exposure to 12. Maximal caspase 8 expression in the HT-29 cells was observed within 2 hours of exposure to 14, 4 and 6, and within 4 hours after exposure to 3. Maximal caspase 3 expression in the HT-29 cells was observed after 2 hours of exposure to 4 and 6, and after 4 hours of exposure to 14 and 3.
(§2) The activation of caspases initiates apoptosis in mammalian cells. Caspase 3 and Caspase 8 were detected using the CPP32 and FLICE colorimetric Assay kits, respectively. The following method (obtained from Biovision research products) was performed.
(§3) The treated HT-29 and Caco-2 cells were harvested and resuspended in 50 μl of chilled cell lysis buffer and incubated on ice for 10 minutes. The cells were centrifuged for 1 minute (10000 g) and the supernatant (cytosolic extract) was transferred to a fresh tube and placed on ice. The protein concentration was assayed using the Biorad assay method. 100-200 μg protein to 50 μl cell lysis buffer was diluted for each assay. 50 μl of 2× Reaction buffer (containing 10 mM DTT) was added to each sample. 5 μl of 4 mM IETD-pNA substrate for Caspase 8 and 5 μl of 4 mM DEVD-pNA substrate for Caspase 3 was added to each sample and incubated at 37° C. for 1-2 hours. The samples were read at 405 nm in the microtiter plate reader. Time dependent studies were performed for protease activity by attaining results 2, 4, 6, 12, and 24 hours after treatment with the compounds.

caspase 8 in HT-29 cells = assay: Caspase 8 colorimetric assay, HT-29 lysates; format: cell-based, human; details: time of exposure
Method: as §1, §2
The treated HT-29 and Caco-2 cells were harvested and resuspended in 50 μl of chilled cell lysis buffer and incubated on ice for 10 minutes. The cells were centrifuged for 1 minute (10000 g) and the supernatant (cytosolic extract) was transferred to a fresh tube and placed on ice. […] The samples were read at 405 nm in the microtiter plate reader. […]

[1] = test system: caspase 3 in Caco-2 cells; assay: Caspase 3 colorimetric assay, Caco-2 lysates; format: cell-based, human; details: time of exposure
Method: as §1, §2, §3

HT-29 cell line = assay: MTT cell viability assay, HT-29; format: cell-based, human; details: read-out: IC50 (molar concentration that inhibited growth by 50%), 24 hours, 5 μM to 100 μM
Method: (§4) The colon cancer cells were initially exposed to the different imidazo[1,2-a]pyridines compounds at 100 μM (final concentration in the well) at 37° C. for 24 hours using an MTT assay for cell viability quantification.
(§5) The HT-29 and Caco-2 cells were exposed to the novel imidazo[1,2-a]pyridine class of compounds according to the invention in concentrations ranging from 5 μM to 100 μM for 24 hours.
(§6) The study made use of two colonic carcinoma cell lines, namely the HT-29 and Caco-2 cell lines. The HT-29 and Caco-2 cell lines were obtained from Highveld Biological, South Africa. Both cell lines were cultured in Dulbecco's Modified Eagles Medium (DMEM) (Highveld Biological, South Africa) and supplemented with 5% heat-inactivated heat-inactivated foetal bovine serum (FBS). 1 ml 10 kU penicillin G/10 mg streptomycin sulphate (pen/strep) (Highveld Biological, South Africa) and 0.4% 100 mM sodium pyruvate per 500 ml DMEM were added after filter sterilisation.
The two colon cancer cells were counted and diluted into fresh media at concentrations of 30 000 cells/well and an aliquot of 180 μl was seeded to each well in a 96-well plate. The plates were then placed in an incubator (37° C., 5% CO2, volume fraction) and the cells were allowed to divide for a period of 24 hours.
The cells were exposed to the different classes of synthetic compounds at 100 μM (final concentration in the well) at 37° C. for 24 hours using an MTT assay for cell viability quantification. After the 24 hour incubation, the plates were removed from the incubator, and an aliquot of 50 μl 0.5% MTT (USB, USA) in 1 mM PBS (pH 7.4) was layered on the media. The plates were incubated for 2 hours at 37° C. The plates were than centrifuged at 3000 rpm (Afrox Sorvall T 6000D) for 5 minutes. Following centrifugation, the medium was very carefully aspirated. Formazan crystals were dissolved in 200 μl DMSO. The absorbance was then read at 540 nm using the Absorbance Labsystems Multiskan MS, version 2.4. The controls used in the assay consisted of i) medium alone without cells, ii) medium with or without the tested compounds and iii) medium with Camptothecin.
Compounds showing cytotoxicity at a concentration of 100 μM were further diluted to obtain an IC50 concentration. All tests were performed in triplicate.

HT-29 cells = details: 100 μM, 24 hours
Method: (§7) The dysfunction of the mitochondria is believed to be an important step in the commitment of the cell to apoptosis. To assess whether disruption of the mitochondrial transmembrane potential (Δψ) was involved in the apoptotic action of the novel imidazo[1,2-a]pyridines, the HT-29 and Caco-2 cells were treated for 24 hours with 100 μM of the novel compounds and then analysed by flow cytometry by using the cationic fluorescent dye 5,5′,6,6′-tetrachloro-1,1′,3,3′-tetraethylbenzimidazolcarbocyanine iodide (JC-1) to measure mitochondrial membrane depolarization in intact viable cells.
(§8) When energy is released during the oxidation reactions in the mitochondrial respiratory chain, it is stored as a negative electrochemical gradient across the mitochondrial membrane. Under these situations, the mitochondrial membrane potential (Δψ) is polarized. During the early stages of apoptosis, a collapse of the Δψ which results in a depolarized Δψ, is sometimes noticed. […] The changes in Δψ have also been noticed during necrosis (depolarisation) and cell cycle arrest (hyperpolarisation). Understanding the Δψ and how it alters during apoptosis and necrosis, may assist in determining the function of the mitochondria in these and other cellular processes. […]

Caco-2 cells = assay: JC-1 mitochondrial membrane potential flow cytometry, Caco-2; format: cell-based, human; details: 100 μM, 24 hours
Method: as §7, §8

Caco-2 cell line = assay: MTT cell viability assay, Caco-2; format: cell-based; details: Homo sapiens, read-out: IC50 (molar concentration that inhibited growth by 50%), 24 hours, 5 μM to 100 μM
Method: as §4, §5
as §6, with “1 ml 10 kU penicillin G/10 mg streptomycin sulphate (pen/strep) (Highveld Biological, South Africa) and 0.4% 100 mM sodium pyruvate per 500 ml DMEM were added after filter sterilisation.” left out
The two colon cancer cells were counted and diluted into fresh media at concentrations of 30 000 cells/well and an aliquot of 180 μl was seeded to each well in a 96-well plate. […]
The cells were exposed to the different classes of synthetic compounds at 100 μM (final concentration in the well) at 37° C. for 24 hours using an MTT assay for cell viability quantification. […] The absorbance was then read at 540 nm using the Absorbance Labsystems Multiskan MS, version 2.4. […]

SMILES: COc1ccc(-c2nc3ccc(C)cn3c2Nc2c(C)cccc2C)cc1OC [Compound 3]
- White Blood Cell Viability % (white blood cells; 100 µM): 76.176 ± 0.567%
- time at which high caspase 3 levels were observed (caspase 3 in HT-29 cells): 4 h
- time of maximal caspase 3 expression (caspase 3 in HT-29 cells): 4 h
- time of maximal (peak) caspase 8 expression (caspase 8 in HT-29 cells): ≤ 4 h
- time at which high caspase 3 levels were observed [1]: 4 h

SMILES: COc1ccc(OC)c(-c2nc3ccc(Br)cn3c2NCc2ccccc2)c1 [Compound 4]
- White Blood Cell Viability % (white blood cells; 100 µM): 88.943 ± 1.996%
- initiation of apoptosis compared with camptothecin (caspase 3 in HT-29 cells): earlier stage than camptothecin
- time at which high caspase 3 levels were observed (caspase 3 in HT-29 cells): 2 h
- time of maximal caspase 3 expression (caspase 3 in HT-29 cells): 2 h
- time at which high caspase 3 levels were observed [1]: 2 h

SMILES: COc1ccc(-c2nc3ccc(Br)cn3c2Nc2c(C)cccc2C)cc1OC [Compound 6]
- White Blood Cell Viability % (white blood cells; 24 h, 100 µM): 83.762 ± 1.389%
- initiation of apoptosis compared with camptothecin (caspase 3 in HT-29 cells): earlier stage than camptothecin
- time at which high caspase 3 levels were observed (caspase 3 in HT-29 cells): 2 h
- time of maximal caspase 3 expression (caspase 3 in HT-29 cells): 2 h
- time at which high caspase 3 levels were observed [1]: 2 h

SMILES: NC(=O)c1ccc2nc(-c3ccc(OCc4ccccc4)cc3OCc3ccccc3)c(NC3CCCCC3)n2c1 [Compound 7]
- IC50 (HT-29 cell line): 9.2 ± 0.83 µM
- White Blood Cell Viability % (white blood cells; 100 µM): 93.834 ± 0.271%
- time of maximal caspase 3 expression (caspase 3 in HT-29 cells): 8 h
- cells undergoing apoptosis (JC-1) (HT-29 cells): 79.62%
- healthy cells remaining after treatment (JC-1) (HT-29 cells): 20.33%

SMILES: COc1ccc(-c2nc3ccc(Br)cn3c2Nc2c(C)cccc2C)c(OC)c1 [Compound 12]
- IC50 (HT-29 cell line; Homo sapiens): 22 ± 1.17 µM
- White Blood Cell Viability % (white blood cells; 24 h, 100 µM): 96.311 ± 5.023%
- time of maximal caspase 3 expression (caspase 3 in HT-29 cells): 4 h
- cells undergoing apoptosis (JC-1), average (Caco-2 cells): 81.91%

SMILES: COc1ccc(-c2nc3ccc(C)cn3c2Nc2c(C)cccc2C)c(OC)c1 [Compound 13]
- IC50 (HT-29 cell line): 10 ± 2.69 µM
- White Blood Cell Viability % (white blood cells; 100 µM): 97.479 ± 1.178%
- time of maximal caspase 3 expression (caspase 3 in HT-29 cells): 8 h

SMILES: COc1ccc(-c2nc3ccc(-c4ccccc4)cn3c2Nc2c(C)cccc2C)cc1OC [Compound 14]
- White Blood Cell Viability % (white blood cells; 24 h, 100 µM): 77.345 ± 1.005%
- initiation of apoptosis compared with camptothecin (caspase 3 in HT-29 cells): earlier stage than camptothecin
- time at which high caspase 3 levels were observed (caspase 3 in HT-29 cells): 2 h
- time of maximal caspase 3 expression (caspase 3 in HT-29 cells): 4 h
- time at which high caspase 3 levels were observed [1]: 2 h

SMILES: CC[C@@]1(O)C(=O)OCc2c1cc1n(c2=O)Cc2cc3ccccc3nc2-1 [camptothecin, reference compound]
- IC50 (HT-29 cell line; Homo sapiens): 9.99 ± 1.41 µM
- IC50 (Caco-2 cell line): 9.55 ± 2.21 µM
- White Blood Cell Viability % (white blood cells; 100 μM, 24 hours, MTT): 33.782 ± 2.031%
